These results are taken from patent US20150056166A1, “FLAVONE DERIVATIVES AND THEIR USE” (Twincore GmbH, priority 2012, published 2015).

Each structure is given as a SMILES string. Like-named read-outs stand apart in the source and are kept apart here.

What is called inhibition is the percentage by which the read-out fell short of the control.

In this assay the test system is JcR-2a virus particles. Briefly: Antiviral activity against early steps of HCV cell entry, synchronized JcR-2a infection (FIG. 3). The conditions noted are these: Hepatitis C virus. The format is cell-based. How it is done: FIG. 3: BJ486K inhibits cell entry post virus attachment. The design of the JcR-2a reporter virus construct is given at the top. Huh7-Lunet/CD81 cells were inoculated with concentrated JcR-2a particles at 4° C. for 60 minutes. Subsequently, unbound virus particles were washed away and cells were shifted to 37° C. to permit synchronized cell entry. According to the 8 experimental protocols depicted in the middle, various cell entry inhibitors including heparin (50 μg/ml), ITX5061 (10 μM), CD81-specific antibody JS-81 (2 μg/ml) and BJ486K (20 μM) were either present during inoculation (protocol 1) or were added at different time points after inoculation (protocols 2 to 8). In each case, inhibitor was present for 4 h (dashed line) and was then washed away. Efficiency of cell entry was determined 48 h post inoculation by determination of luciferase activity and is expressed relative to control infections conducted in the presence of solvent alone (DMSO). Mean values of three independent experiments each with quadruplicate measurements including the standard deviation are shown.
JcR-2a virus particles were incubated with Huh7-Lunet/CD81 cells seeded as described above for 1 h at 4° C. to synchronize cell entry. Various inhibitors including 50 μg/ml heparin (Sigma-Aldrich), CD81-specific antibody JS-81 (2 μg/ml; Becton Dickinson), ITX 5061 (10 μM) or BJ486K (20 μM), were added during virus inoculation (protocol 1) or at indicated time points after virus inoculation (protocol 2-8). After 4 h inhibitor treatment, medium was changed to fresh culture fluid without inhibitors and the cells were lysed 48 h after inoculation as described above. Efficiency of infection was determined by luciferase assay using a tube luminometer (Lumat LB9507, Berthold, Freiburg, Germany).
To resolve which step of HCV cell entry is inhibited by BJ486K, we assessed its antiviral activity when administered at different time points during the early phase of infection. To this end, Huh7-Lunet/CD81 cells were inoculated for one hour at 4° C. with a reporter virus prepared in the absence of drugs. […]

Regarding `COc1ccc(-c2cc(=O)c3c(O)c(O)c(OC)cc3o2)cc1` [BJ486K, 5,6-Dihydroxy-7-methoxy-2-(4-methoxy-phenyl)-chromen-4-one], the inhibition at 20 µM is, setting by setting: (20 min, read-out: inhibition of HCV infection) around 80%; (read-out: inhibition of entry) above 90%.
